Reference: patent US6737383B1, “Herbicidal oxadiazolidines” (priority 1999, dated 2004)

Legend:
[1] = test system: bedstraw; assay: Test B pre/postemergence bedstraw; assay type: in vivo, Galium aparine; settings: Postemergence, Rate 500 g/ha; scale of 0 to 10 where 0 is no effect and 10 is complete control
Outline: (§1)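 Herbicidal effect was estimated by eye on a ten-point control scale after plants spent twelve to sixteen days in a greenhouse following soil or foliar treatment. Foliar sprays targeted plants at one to four leaves; all doses were formulated in a non-phytotoxic solvent with surfactant.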

[2] = test system: blackgrass; assay: Test B pre/postemergence blackgrass; assay type: in vivo, Alopecurus myosuroides
Outline: as §1

[3] = test system: surinam grass; assay: Test B pre/postemergence surinam grass; assay type: in vivo, Brachiaria decumbens
Outline: as §1

[4] = test system: corn; assay: Test B pre/postemergence corn; assay type: in vivo, Zea mays
Outline: as §1

[5] = test system: crabgrass; assay: Test B pre/postemergence crabgrass; assay type: in vivo, Digitaria sanguinalis
Outline: as §1

[6] = test system: pigweed; assay: Test B pre/postemergence pigweed; assay type: in vivo, Amaranthus retroflexus
Outline: as §1

[7] = test system: rape; assay: Test B pre/postemergence rape; assay type: in vivo, Brassica napus
Outline: as §1

[8] = test system: soybean; assay: Test B pre/postemergence soybean; assay type: in vivo, Glycine max
Outline: as §1

[9] = test system: sugar beet; assay: Test B pre/postemergence sugar beet; assay type: in vivo, Beta vulgaris
Outline: as §1

[10] = test system: velvetleaf; assay: Test B pre/postemergence velvetleaf; assay type: in vivo, Abutilon theophrasti
Outline: as §1

[11] = test system: wheat; assay: Test B pre/postemergence wheat; assay type: in vivo, Triticum aestivum
Outline: as §1

[12] = test system: wild oat; assay: Test B pre/postemergence wild oat; assay type: in vivo, Avena fatua
Outline: as §1

[13] = test system: purple nutsedge; assay: Test B pre/postemergence purple nutsedge; assay type: in vivo, Cyperus rotundus
Outline: as §1

[14] = test system: rice; assay: Test B flood test rice; assay type: in vivo, Oryza sativa
Outline: (§2)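 Read-out is a visual response score from 0 (no effect) to 10 (complete control), assigned by comparison with untreated controls. Treatment was applied at the 2-leaf stage, and plants stayed in the greenhouse for twelve to sixteen days before scoring.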

[15] = test system: smallflower flatsedge; assay: Test B flood test smallflower flatsedge; assay type: in vivo, Cyperus difformis
Outline: as §2

[16] = test system: duck salad; assay: Test B flood test duck salad; assay type: in vivo, Heteranthera limosa
Outline: as §2

[17] = Postemergence, Rate 250 g/ha, scale 0 to 10, 0 is no effect, 10 is complete control
[18] = Postemergence, Rate 500 g/ha, scale of 0 to 10 where 0 is no effect and 10 is complete control
[19] = Preemergence, Rate 62 g/ha, scale 0 to 10 (0 no effect, 10 complete control)
[20] = Preemergence, Rate 125 g/ha, scale of 0 to 10 where 0 is no effect and 10 is complete control
[21] = Preemergence, Rate 250 g/ha, scale of 0 to 10 where 0 is no effect and 10 is complete control
[22] = Preemergence, Rate 500 g/ha, scale of 0 to 10 where 0 is no effect and 10 is complete control
[23] = Postemergence, Rate 125 g/ha, scale 0 to 10, 0 is no effect, 10 is complete control
[24] = Rate 62 g/ha, Postemergence, scale of 0 to 10 where 0 is no effect and 10 is complete control
[25] = Rate 62 g/ha, flood test species, Pre-emergence, visual evaluation after twelve to sixteen days
[26] = Rate 125 g/ha, under heading Pre-emergence, flood test species, visual evaluation after twelve to sixteen days
[27] = Rate 250 g/ha, Pre-emergence, flood-test species, scale 0 to 10, 0 is no effect, 10 is complete control
[28] = Rate 500 g/ha, Pre-emergence, flood test species, scale 0 to 10 (0 no effect, 10 complete control)

CC(C)N(C(=O)n1oc(=O)[nH]c1=O)c1ccc(F)cc1F [Compound 391]
0: Bedstraw plant response rating [1] | Plant response rating, Blackgrass [2, 17] | Blackgrass plant response rating [2, 18] | Plant response rating, Blackgrass [2, 19] | Plant response rating, Blackgrass [2, 20] | Blackgrass plant response rating [2, 21] | Blackgrass plant response rating [2, 22] | Plant response rating, B. signalgrass [3, 23] | Plant response rating, B. signalgrass [3, 17] | B. signalgrass plant response rating [3, 18] | Plant response rating, B. signalgrass [3, 19] | Plant response rating, B. signalgrass [3, 20] | B. signalgrass plant response rating [3, 21] | B. signalgrass plant response rating [3, 22] | B. signalgrass plant response rating [3, 24] | Plant response rating, Corn [4, 23] | Plant response rating, Corn [4, 17] | Corn plant response rating [4, 18] | Plant response rating, Corn [4, 19] | Plant response rating, Corn [4, 20] | Corn plant response rating [4, 21] | Corn plant response rating [4, 22] | Corn plant response rating [4, 24] | Plant response rating, Crabgrass [5, 23] | Plant response rating, Crabgrass [5, 17] | Crabgrass plant response rating [5, 18] | Plant response rating, Crabgrass [5, 19] | Plant response rating, Crabgrass [5, 20] | Crabgrass plant response rating [5, 21] | Crabgrass plant response rating [5, 22] | Crabgrass plant response rating [5, 24] | Plant response rating, Redroot pigweed [6, 17] | Redroot pigweed plant response rating [6, 18] | Plant response rating, Redroot pigweed [6, 19] | Plant response rating, Redroot pigweed [6, 20] | Redroot pigweed plant response rating [6, 21] | Redroot pigweed plant response rating [6, 22] | Redroot pigweed plant response rating [6, 24] | Plant response rating, Rape [7, 17] | Rape plant response rating [7, 18] | Plant response rating, Rape [7, 19] | Plant response rating, Rape [7, 20] | Rape plant response rating [7, 21] | Rape plant response rating [7, 22] | Rape plant response rating [7, 24] | Plant response rating, Soybean [8, 17] | Soybean plant response rating [8, 18] | Plant response rating, Soybean [8, 19] | Plant response rating, Soybean [8, 20] | Soybean plant response rating [8, 21] | Soybean plant response rating [8, 22] | Soybean plant response rating [8, 24] | Plant response rating, Sugarbeets [9, 17] | Sugarbeets plant response rating [9, 18] | Plant response rating, Sugarbeets [9, 19] | Plant response rating, Sugarbeets [9, 20] | Sugarbeets plant response rating [9, 21] | Sugarbeets plant response rating [9, 22] | Sugarbeets plant response rating [9, 24] | Plant response rating, Velvetleaf [10, 17] | Velvetleaf plant response rating [10, 18] | Plant response rating, Velvetleaf [10, 19] | Plant response rating, Velvetleaf [10, 20] | Velvetleaf plant response rating [10, 21] | Velvetleaf plant response rating [10, 22] | Velvetleaf plant response rating [10, 24] | Plant response rating, Wheat [11, 17] | Wheat plant response rating [11, 18] | Plant response rating, Wheat [11, 19] | Plant response rating, Wheat [11, 20] | Wheat plant response rating [11, 21] | Wheat plant response rating [11, 22] | Wheat plant response rating [11, 24] | Plant response rating, Wild oats [12, 17] | Wild oats plant response rating [12, 18] | Plant response rating, Wild oats [12, 19] | Plant response rating, Wild oats [12, 20] | Wild oats plant response rating [12, 21] | Wild oats plant response rating [12, 22] | Wild oats plant response rating [12, 24] | Plant response rating, Nutsedge [13, 17] | Nutsedge plant response rating [13, 18] | Plant response rating, Nutsedge [13, 19] | Plant response rating, Nutsedge [13, 20] | Nutsedge plant response rating [13, 21] | Nutsedge plant response rating [13, 22] | Nutsedge plant response rating [13, 24] | Plant response rating, Rice (0 to 10 scale, 0 is no effect, 10 is complete control) [14, 25] | Rice plant response rating (0 to 10 scale, 0 is no effect, 10 is complete control) [14, 26] | Rice plant response rating [14, 27] | Rice plant response rating [14, 28] | Plant response rating, S. Flatsedge (0 to 10 scale, 0 is no effect, 10 is complete control) [15, 25] | S. Flatsedge plant response rating (0 to 10 scale, 0 is no effect, 10 is complete control) [15, 26] | S. Flatsedge plant response rating [15, 27] | S. Flatsedge plant response rating [15, 28] | Plant response rating, Ducksalad (0 to 10 scale, 0 is no effect, 10 is complete control) [16, 25] | Ducksalad plant response rating (0 to 10 scale, 0 is no effect, 10 is complete control) [16, 26] | Ducksalad plant response rating [16, 27] | Ducksalad plant response rating [16, 28]
